target: HSD17B13 (Homo sapiens (Human), UniProt Q7Z5P4); test: LC/MS estrone detection assay: conversion of estradiol to estrone by HSD17B13; assay type: biochemical; details: 4 μM estradiol, 6 mM NAD+, 30 nM HSD17B13 enzyme (E. coli expressed His-tagged), 2 hours at 26.5° C.
How it was run: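 His-tagged E. coli-expressed HSD17B13 (30 nM) with 4 μM estradiol and 6 mM NAD+ in 1 M potassium phosphate pH 7.4, 0.5% DMSO, 2 h at 26.5° C. Estrone and estradiol quantified by LC-MS/MS after MeCN quench with D4-estrone internal standard; activity as % of uninhibited enzyme, IC50 by four-parameter fit, duplicates.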

Sequence of HSD17B13 (Q7Z5P4 20-300): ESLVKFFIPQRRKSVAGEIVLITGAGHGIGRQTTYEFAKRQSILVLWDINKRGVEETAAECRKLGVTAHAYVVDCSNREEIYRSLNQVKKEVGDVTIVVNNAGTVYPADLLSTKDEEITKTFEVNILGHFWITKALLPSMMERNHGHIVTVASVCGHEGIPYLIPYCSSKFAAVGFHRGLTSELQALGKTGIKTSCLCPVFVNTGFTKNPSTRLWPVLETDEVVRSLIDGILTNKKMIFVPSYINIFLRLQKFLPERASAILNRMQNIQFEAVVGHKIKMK

Q: `Cc1ccc(NC(=O)c2cc(Cl)c(O)c(Cl)c2)c2c(=O)n(Cc3ccccc3OC(F)(F)F)c(CF)nc12` [Example 152, 3,5-dichloro-N-(2-(fluoromethyl)-8-methyl-4-oxo-3-(2-(trifluoromethoxy)benzyl)-3,4-dihydroquinazolin-5-yl)-4-hydroxybenzamide] was tested. Which IC50 did it give?
A: 500 to 1000 nM

Q: For `Cc1ccc(NC(=O)c2cc(Cl)c(O)c(Cl)n2)c2c(=O)n(Cc3ncccc3C(F)(F)F)c(C)nc12` [Example 153, 4,6-dichloro-N-(2,8-dimethyl-4-oxo-3-((3-(trifluoromethyl)pyridin-2-yl)methyl)-3,4-dihydroquinazolin-5-yl)-5-hydroxypicolinamide], which IC50 is on record?
A: 100 to 500 nM

Q: Which IC50 does the source give for `Cc1nc2c(F)ccc(NC(=O)c3cc(Cl)c(O)c(Cl)c3)c2c(=O)n1Cc1ncccc1C(F)(F)F` [Example 154, 3,5-dichloro-N-(8-fluoro-2-methyl-4-oxo-3-((3-(trifluoromethyl)pyridin-2-yl)methyl)-3,4-dihydroquinazolin-5-yl)-4-hydroxybenzamide] here?
A: ≤ 100 nM

Q: How did the IC50 turn out when `Cc1nc2c(F)ccc(NC(=O)c3cc(Cl)c(O)c(Cl)n3)c2c(=O)n1Cc1ncccc1C(F)(F)F` [Example 155, 4,6-dichloro-N-(8-fluoro-2-methyl-4-oxo-3-((3-(trifluoromethyl)pyridin-2-yl)methyl)-3,4-dihydroquinazolin-5-yl)-5-hydroxypicolinamide] was run?
A: 100 to 500 nM

Q: For `Cc1nc2c(Cl)ccc(NC(=O)c3cc(Cl)c(O)c(Cl)c3)c2c(=O)n1Cc1ccccc1C(F)(F)F` [Example 156, 3,5-dichloro-N-(8-chloro-2-methyl-4-oxo-3-(2-(trifluoromethyl)benzyl)-3,4-dihydroquinazolin-5-yl)-4-hydroxybenzamide], which IC50 is on record?
A: ≤ 100 nM

Q: With `Cc1nc2c(F)ccc(NC(=O)c3cc(Cl)c(O)c(Cl)c3)c2c(=O)n1C(C)c1ccccc1OC(F)(F)F` (centres unmarked) [Example 157, 3,5-dichloro-N-(8-fluoro-2-methyl-4-oxo-3-(1-(2-(trifluoromethoxy)phenyl)ethyl)-3,4-dihydroquinazolin-5-yl)-4-hydroxybenzamide] as the molecule, how does the IC50 read?
A: 100 to 500 nM

Q: For `Cc1nc2c(F)ccc(NC(=O)c3cc(Cl)c(O)c(Cl)c3)c2c(=O)n1Cc1ccccc1C(F)(F)F` [Example 158, 3,5-dichloro-N-(8-fluoro-2-methyl-4-oxo-3-(2-(trifluoromethyl)benzyl)-3,4-dihydroquinazolin-5-yl)-4-hydroxybenzamide], which IC50 is on record?
A: ≤ 100 nM

Q: `Cc1nc2c(F)ccc(NC(=O)c3cc(Cl)c(O)c(Cl)n3)c2c(=O)n1Cc1ccccc1C(F)(F)F` [Example 159, 4,6-dichloro-N-(8-fluoro-2-methyl-4-oxo-3-(2-(trifluoromethyl)benzyl)-3,4-dihydroquinazolin-5-yl)-5-hydroxypicolinamide] was tested. Which IC50 did it give?
A: 100 to 500 nM

Q: `Cc1ccc(NC(=O)c2cc(Cl)c(O)c(Cl)n2)c2c(=O)n(Cc3ccccc3OC(F)(F)F)c(C(F)F)nc12` [Example 160, 4,6-dichloro-N-(2-(difluoromethyl)-8-methyl-4-oxo-3-(2-(trifluoromethoxy)benzyl)-3,4-dihydroquinazolin-5-yl)-5-hydroxypicolinamide] was tested. Which IC50 did it give?
A: ≤ 100 nM

Q: With `Cc1ccc(NC(=O)c2cc(Cl)c(O)c(Cl)n2)c2c(=O)n(Cc3nn(C)c4ccccc34)c(C)nc12` [Example 162, 4,6-dichloro-N-(2,8-dimethyl-3-((1-methyl-1H-indazol-3-yl)methyl)-4-oxo-3,4-dihydroquinazolin-5-yl)-5-hydroxypicolinamide] as the molecule, how does the IC50 read?
A: 100 to 500 nM

Q: Which IC50 does the source give for `Cc1ccc(NC(=O)c2cc(Cl)c(O)c(Cl)n2)c2c(=O)n(Cc3ccccc3C(F)(F)F)c(C)nc12` [Example 163, 4,6-dichloro-N-(2,8-dimethyl-4-oxo-3-(2-(trifluoromethyl)benzyl)-3,4-dihydroquinazolin-5-yl)-5-hydroxypicolinamide] here?
A: 100 to 500 nM

Q: How did the IC50 turn out when `Cc1ccc(NC(=O)c2cc(Cl)c(O)c(Cl)c2)c2c(=O)n(Cc3ncccc3C(F)(F)F)c(C(F)F)nc12` [Example 164, 3,5-dichloro-N-(2-(difluoromethyl)-8-methyl-4-oxo-3-((3-(trifluoromethyl)pyridin-2-yl)methyl)-3,4-dihydroquinazolin-5-yl)-4-hydroxybenzamide] was run?
A: 100 to 500 nM

Q: `Cc1nc2c(Cl)ccc(NC(=O)c3cc(Cl)c(O)c(Cl)n3)c2c(=O)n1Cc1ncccc1C(F)(F)F` [Example 165, 4,6-dichloro-N-(8-chloro-2-methyl-4-oxo-3-((3-(trifluoromethyl)pyridin-2-yl)methyl)-3,4-dihydroquinazolin-5-yl)-5-hydroxypicolinamide] was tested. Which IC50 did it give?
A: 100 to 500 nM

Q: Which IC50 does the source give for `Cc1nc2c(Cl)ccc(NC(=O)c3cc(Cl)c(O)c(Cl)c3)c2c(=O)n1Cc1ncccc1C(F)(F)F` [Example 166, 3,5-dichloro-N-(8-chloro-2-methyl-4-oxo-3-((3-(trifluoromethyl)pyridin-2-yl)methyl)-3,4-dihydrjoquinazolin-5-yl)-4-hydroxybenzamide] here?
A: 100 to 500 nM

Q: How did the IC50 turn out when `Cc1ccc(NC(=O)c2cc(Cl)c(O)c(Cl)c2)c2c(=O)n(Cc3ccccc3C(F)(F)F)c(C(F)F)nc12` [Example 167, 3,5-dichloro-N-(2-(difluoromethyl)-8-methyl-4-oxo-3-(2-(trifluoromethyl)benzyl)-3,4-dihydroquinazolin-5-yl)-4-hydroxybenzamide] was run?
A: ≤ 100 nM

Q: `Cc1nc2c(F)ccc(NC(=O)c3cc(Cl)c(O)c(Cl)c3)c2c(=O)n1Cc1ccccc1OC(F)(F)F` [Example 168, 3,5-dichloro-N-(8-fluoro-2-methyl-4-oxo-3-(2-(trifluoromethoxy)benzyl)-3,4-dihydroquinazolin-5-yl)-4-hydroxybenzamide] was tested. Which IC50 did it give?
A: ≤ 100 nM

Q: Which IC50 does the source give for `[2H]C([2H])([2H])c1nc2c(C)ccc(NC(=O)c3cc(Cl)c(O)c(Cl)c3)c2c(=O)n1Cc1ccccc1OC(F)(F)F` [Example 169, 3,5-dichloro-4-hydroxy-N-(8-methyl-2-(methyl-d3)-4-oxo-3-(2-(trifluoromethoxy)benzyl)-3,4-dihydroquinazolin-5-yl)benzamide] here?
A: ≤ 100 nM

Q: With `Cc1nc2c(Cl)ccc(NC(=O)c3cc(Cl)c(O)c(Cl)n3)c2c(=O)n1Cc1ccccc1C(F)(F)F` [Example 170, 4,6-dichloro-N-(8-chloro-2-methyl-4-oxo-3-(2-(trifluoromethyl)benzyl)-3,4-dihydroquinazolin-5-yl)-5-hydroxypicolinamide] as the molecule, how does the IC50 read?
A: 100 to 500 nM

Q: `[2H]C([2H])([2H])c1nc2c(F)ccc(NC(=O)c3cc(Cl)c(O)c(Cl)c3)c2c(=O)n1Cc1ccccc1C(F)(F)F` [Example 171, 3,5-dichloro-N-(8-fluoro-2-(methyl-d3)-4-oxo-3-(2-(trifluoromethyl)benzyl)-3,4-dihydroquinazolin-5-yl)-4-hydroxybenzamide] was tested. Which IC50 did it give?
A: 100 to 500 nM

Q: `Cc1ccc(NC(=O)c2cc(Cl)c(O)c(Cl)c2)c2c(=O)n(Cc3ncccc3Cl)c(C)nc12` [Example 172, 3,5-dichloro-N-(3-((3-chloropyridin-2-yl)methyl)-2,8-dimethyl-4-oxo-3,4-dihydroquinazolin-5-yl)-4-hydroxybenzamide] was tested. Which IC50 did it give?
A: 100 to 500 nM

Q: `Cc1nc2c(F)ccc(NC(=O)c3cc(Cl)c(O)c(Cl)c3)c2c(=O)n1[C@@H](C)c1ccccc1OC(F)(F)F` [Example 173, (S)-3,5-dichloro-N-(8-fluoro-2-methyl-4-oxo-3-(1-(2-(trifluoromethoxy)phenyl)ethyl)-3,4-dihydroquinazolin-5-yl)-4-hydroxybenzamide] was tested. Which IC50 did it give?
A: 100 to 500 nM

Q: With `Cc1nc2c(F)ccc(NC(=O)c3cc(Cl)c(O)c(Cl)c3)c2c(=O)n1[C@H](C)c1ccccc1OC(F)(F)F` [Example 174, (R)-3,5-dichloro-N-(8-fluoro-2-methyl-4-oxo-3-(1-(2-(trifluoromethoxy)phenyl)ethyl)-3,4-dihydroquinazolin-5-yl)-4-hydroxybenzamide] as the molecule, how does the IC50 read?
A: 100 to 500 nM

Q: `[2H]C([2H])([2H])c1nc2c(C)ccc(NC(=O)c3cc(Cl)c(O)c(Cl)n3)c2c(=O)n1Cc1ccccc1OC(F)(F)F` [Example 176, 4,6-dichloro-5-hydroxy-N-(8-methyl-2-(methyl-d3)-4-oxo-3-(2-(trifluoromethoxy)benzyl)-3,4-dihydroquinazolin-5-yl)picolinamide] was tested. Which IC50 did it give?
A: ≤ 100 nM

Q: For `Cc1ccc(NC(=O)c2cc(Cl)c(O)c(Cl)n2)c2c(=O)n(Cc3ncccc3C(F)(F)F)c(C(F)F)nc12` [Example 177, 4,6-dichloro-N-(2-(difluoromethyl)-8-methyl-4-oxo-3-((3-(trifluoromethyl)pyridin-2-yl)methyl)-3,4-dihydroquinazolin-5-yl)-5-hydroxypicolinamide], which IC50 is on record?
A: 100 to 500 nM

Q: For `Cc1ccc(NC(=O)c2cc(Cl)c(O)c(Cl)n2)c2c(=O)n(Cc3ncccc3Cl)c(C)nc12` [Example 178, 4,6-dichloro-N-(3-((3-chloropyridin-2-yl)methyl)-2,8-dimethyl-4-oxo-3,4-dihydroquinazolin-5-yl)-5-hydroxypicolinamide], which IC50 is on record?
A: 500 to 1000 nM

Q: For `[2H]C([2H])([2H])c1nc2c(C)ccc(NC(=O)c3cc(Cl)c(O)c(Cl)c3)c2c(=O)n1Cc1ccccc1C(F)(F)F` [Example 179, 3,5-dichloro-4-hydroxy-N-(8-methyl-2-(methyl-d3)-4-oxo-3-(2-(trifluoromethyl)benzyl)-3,4-dihydroquinazolin-5-yl)benzamide], which IC50 is on record?
A: ≤ 100 nM

Q: `[2H]C([2H])([2H])c1nc2c(C)ccc(NC(=O)c3cc(Cl)c(O)c(Cl)n3)c2c(=O)n1Cc1ccccc1C(F)(F)F` [Example 180, 4,6-dichloro-5-hydroxy-N-(8-methyl-2-(methyl-d3)-4-oxo-3-(2-(trifluoromethyl)benzyl)-3,4-dihydroquinazolin-5-yl)picolinamide] was tested. Which IC50 did it give?
A: 100 to 500 nM

Q: For `Cc1ccc(NC(=O)c2cc(Cl)c(O)c(Cl)n2)c2c(=O)n(Cc3ccccc3C(F)(F)F)c(C(F)F)nc12` [Example 181, 4,6-dichloro-N-(2-(difluoromethyl)-8-methyl-4-oxo-3-(2-(trifluoromethyl)benzyl)-3,4-dihydroquinazolin-5-yl)-5-hydroxypicolinamide], which IC50 is on record?
A: 100 to 500 nM

Q: With `O=C(Nc1scnc1C(=O)NCc1ccccc1C(F)(F)F)c1cc(Cl)c(O)c(Cl)c1` [Example 182, 5-(3,5-dichloro-4-hydroxybenzamido)-N-(2-(trifluoromethyl)benzyl)thiazole-4-carboxamide] as the molecule, how does the IC50 read?
A: ≤ 100 nM

Reference: patent US20230278981A1, “DICHLOROPHENOL HSD17B13 INHIBITORS AND USES THEREOF” (INIPHARM, INC., priority 2020, published 2023)
